Earlier results in US20160136093A9, “ENGINEERED AEROSOL PARTICLES, AND ASSOCIATED METHODS” (priority 2009, published 2016).

Test system: non-replicating TB
Details: after one month, in vitro

Substance: Capreomycin
- decrease in colony forming units (CFU): one to two
